Target: T1, IRAK4 (Homo sapiens, UniProt Q9NWZ3)
T1 construct: endogenous in cells; host or cells: THP-1 cells
T1 sequence (Q9NWZ3 1-460): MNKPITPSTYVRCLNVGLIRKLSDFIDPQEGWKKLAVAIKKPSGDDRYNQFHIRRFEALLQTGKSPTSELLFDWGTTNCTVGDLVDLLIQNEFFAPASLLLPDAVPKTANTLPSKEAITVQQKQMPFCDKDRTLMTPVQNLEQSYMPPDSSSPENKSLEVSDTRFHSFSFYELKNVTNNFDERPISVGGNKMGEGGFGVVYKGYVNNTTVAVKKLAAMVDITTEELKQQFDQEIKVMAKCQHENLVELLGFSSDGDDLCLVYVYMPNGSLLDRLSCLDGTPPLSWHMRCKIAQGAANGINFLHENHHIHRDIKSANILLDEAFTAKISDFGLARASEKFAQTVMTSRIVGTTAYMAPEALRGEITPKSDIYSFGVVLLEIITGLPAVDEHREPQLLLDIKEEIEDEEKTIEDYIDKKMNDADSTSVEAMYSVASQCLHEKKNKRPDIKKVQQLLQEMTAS
Experiment: ALE THP1 HTRF (Advanced Lipoxidation End Product THP1 Homogeneous Time Resolved Fluorescence)
Assay type: cell-based
Details: THP1 cells
Protocol: For Homogenous Time Resolved Fluorescence (HTRF) assays, a Cisbio HTRF kit was used, which included: Lysis Buffer #1 4×, Blocking Reagent #3 100×, 20× Antibody 1 (Anti-IRAK4 d2), 20× Antibody 2 (Anti-IRAK4 k), and Detection Buffer.
4× Lysis Buffer was stored at 4° C. For use as 1× Lysis buffer, the 4× solution was diluted with de-ionized water (distilled water, Gibco Cat. #15230279) and 100× Blocking Reagent in a 1:3:0.04 volume ratio.
20× Antibody Solution aliquots were stored in −80° C. and the Detection Buffer was stored in 4° C. For use as a 1× Antibody Solution, the 20× Antibody Solution aliquot was diluted with Detection Buffer in a 1:19 volume ratio.
Cells were lysed at room temperature for 45 min with shaking. A BCA protein assay was performed and normalization was conducted to the desired total protein concentration with 1× lysis buffer. Next, 1× Antibody Solutions were prepared by adding 380 μL Detection Buffer to 20 μL 20× Antibody Solution aliquots and mixing well. 1× Antibody Solutions were combined 1:1 and briefly vortexed. For control wells, 20 μL 1× anti IRAK4-k Antibody Solution was saved. The 384-well plate (ProxiPlate-384 Plus, Perkin Elmer Cat. #6008289) was loaded by adding 4 μL of the mixed Antibody Solution to empty wells using a single channel repeater. Using a multi-channel repeater, 16 μL lysate was added per well, and any bubbles that were formed were popped with 20 μL pipette tips and Kimwipe edges. In column 10, triplicates of each control was prepared. In wells A10, B10, and C10, buffer control was prepared by adding 16 μL Lysis Buffer and 4 μL Detection Buffer. In wells D10, E10, and F10, cryptate control was prepared by adding 16 μL Lysis Buffer, 2 μL Detection Buffer, and 2 μL 1× anti IRAK4-k Antibody Solution. In wells G10, H10, and I10, a negative control was prepared by adding 16 μL Lysis Buffer and 4 μL mixed Antibody Solution. The plate was sealed with a clear seal and covered with an aluminum lid. The plate was spun down at 800 g for 5 min and incubated in the dark at room temperature overnight. The next day, the plate was spun down at 800 g for 5 min. The samples were analyzed by a plate reader (Envision, PerkinElmer) using the Desnor 384 HTRF program.

| ALE THP1 HTRF YMIN [%] | EC50 [nM] | Compound |
| --- | --- | --- |
| 14.1 | 98 | N#Cc1cnc2c(cnn2-c2cc(NC3CCCC3)c(C(=O)N[C@H]3CC[C@H](CNC4CCN(c5ccc(C6CCC(=O)NC6=O)cc5)CC4)CC3)cn2)c1 (stereo partly shown) [P-29] |
| 44.1 | 3320 | N#Cc1cnc2c(cnn2-c2cc(NC3CCCC3)c(C(=O)NC3CCC(O)(CN4CCN(c5ccc6c(c5)C(=O)N(C5CCC(=O)NC5=O)C6=O)CC4)CC3)cn2)c1 (stereo not shown) [P-30, 6-(5-cyano-1H-pyrazolo[3,4-b]pyridin-1-yl)-4-(cyclopentylamino)-N-((1s,4s)-4-((4-(2-(2,6-dioxopiperidin-3-yl)-1,3-dioxoisoindolin-5-yl)piperazin-1-yl)methyl)-4-hydroxycyclohexyl)nicotinamide] |
| 18.2 | 60 | N#Cc1cnc2c(cnn2-c2cc(NC3CCCC3)c(C(=O)NC3CCC(CN4CCC(C(=O)Nc5ccc(C6CCC(=O)NC6=O)cc5)CC4)CC3)cn2)c1 (stereo not shown) [P-31] |
| 21.0 | 547 | C[C@@H]1CN(c2ccc3c(c2)C(=O)N(C2CCC(=O)NC2=O)C3=O)C[C@H](C)N1CC1CCC(NC(=O)c2cnc(-n3ncc4cc(C#N)cnc43)cc2NC2CCCC2)CC1 (stereo partly shown) [P-32] |
| 15.9 | 8 | N#Cc1cnc2c(cnn2-c2cc(NC3CCCC3)c(-n3cc(C4CCC(NC(=O)C5CCN(c6ccc7c(c6)C(=O)N(C6CCC(=O)NC6=O)C7)CC5)CC4)nn3)cn2)c1 (stereo not shown) [P-33] |
| 12.9 | 597 | N#Cc1cnc2c(cnn2-c2cc(NC3CCCC3)c(-c3cn([C@H]4CC[C@H](CN5CCC(C(=O)Nc6ccc(N7CCC(=O)NC7=O)cc6)CC5)CC4)nn3)cn2)c1 [P-34] |
| 8.4 | 41 | N#Cc1cnc2c(cnn2-c2cc(NC3CCCC3)c(C(=O)NC3CCC(CCN4CCN(c5ccc(C6CCC(=O)NC6=O)cc5)CC4)CC3)cn2)c1 (stereo not shown) [P-35] |
| 10.7 | 47 | CC([C@H]1CC[C@H](NC(=O)c2cnc(-n3ncc4cc(C#N)cnc43)cc2NC2CCCC2)CC1)N1CCN(c2ccc3c(c2)C(=O)N(C2CCC(=O)NC2=O)C3)CC1 (stereo partly shown) [P-36] |
| 20.7 | 132 | C[C@H]1CN(c2ccc3c(c2)C(=O)N(C2CCC(=O)NC2=O)C3=O)C[C@H](C)N1CC1CCC(NC(=O)c2cnc(-n3ncc4cc(C#N)cnc43)cc2NC2CCCC2)CC1 (stereo partly shown) [P-37] |
| 24.3 | 119 | CN(c1ccc2c(c1)C(=O)N(C1CCC(=O)NC1=O)C2=O)C1CCN(C[C@H]2CC[C@H](NC(=O)c3cnc(-n4ncc5cc(C#N)cnc54)cc3NC3CCCC3)CC2)CC1 (stereo partly shown) [P-38] |
| 24.3 | 198 | N#Cc1cnc2c(cnn2-c2cc(NC3CCCC3)c(C(=O)NC3CCC(CN4CC5(CCN(c6ccc(C7CCC(=O)NC7=O)cc6)CC5)C4)CC3)cn2)c1 (stereo not shown) [P-39] |
| 20.0 | 276 | N#Cc1cnc2c(cnn2-c2cc(NC3CCCC3)c(-c3cn([C@H]4CC[C@H](CN5CCN(CC(=O)Nc6ccc(C7CCC(=O)NC7=O)cc6)CC5)CC4)nn3)cn2)c1 (stereo partly shown) [P-40, 2-(4-(((1r,4r)-4-(4-(6-(5-Cyano-1H-pyrazolo[3,4-b]pyridin-1-yl)-4-(cyclopentylamino)pyridin-3-yl)-1H-1,2,3-triazol-1-yl)cyclohexyl)methyl)piperazin-1-yl)-N-(4-(2,6-dioxopiperidin-3-yl)phenyl)acetamide] |
| 27.6 | 123 | N#Cc1cnc2c(ccn2-c2cc(NC3CC3)c(C(=O)NC3CCC(CN4CCC(CNc5ccc(C6CCC(=O)NC6=O)cc5)CC4)CC3)cn2)c1 (stereo not shown) [P-42] |
| 14.7 | 312 | N#Cc1cnc2c(cnn2-c2cc(NC3CCCC3)c(C(=O)N[C@H]3CC[C@H](CN4CCC(CCc5ccc(C6CCC(=O)NC6=O)cc5)CC4)CC3)cn2)c1 (stereo partly shown) [P-43] |
| 38.8 | 172 | N#Cc1cnc2c(cnn2-c2cc(NC3CCCC3)c(-c3cn([C@H]4CC[C@H](CN5CCC(CNc6ccc(C7CCC(=O)NC7=O)cc6)CC5)CC4)nn3)cn2)c1 (stereo partly shown) [P-44] |
| 11.4 | 28 | N#Cc1cnc2c(cnn2-c2cc(NC3CCCC3)c(-c3cn([C@H]4CC[C@H](C(=O)N5CCC(C(=O)Nc6ccc(N7CCC(=O)NC7=O)cc6)CC5)CC4)nn3)cn2)c1 [P-45, 1-[4-[4-[6-(5-Cyanopyrazolo[3,4-b]pyridin-1-yl)-4-(cyclopentylamino)-3-pyridyl]triazol-1-yl]cyclohexanecarbonyl]-N-[4-(2,4-dioxohexahydropyrimidin-1-yl)phenyl]piperidine-4-carboxamide] |
| 31.5 | 74 | N#Cc1cnc2c(cnn2-c2cc(NC3CCCC3)c(C(=O)NC3CCC(CN4CCC(C(=O)Nc5ccc(C6CCC(=O)NC6=O)cc5)C(F)(F)C4)CC3)cn2)c1 (stereo not shown) [P-46] |
| 14.1 | 110 | N#Cc1cnc2c(cnn2-c2cc(NC3CCCC3)c(-c3cn([C@H]4CC[C@H](CN5CCC(C(=O)Nc6ccc(C7CCC(=O)NC7=O)cc6)CC5)CC4)nn3)cn2)c1 (stereo partly shown) [P-47] |
| 12.0 | 99 | N#Cc1cnc2c(ccn2-c2cc(NC3CCCC3)c(C(=O)NC3CCC(CCN4CCN(c5ccc(C6CCC(=O)NC6=O)cc5)CC4)CC3)cn2)c1 (stereo not shown) [P-48] |
| 10.9 | 21 | N#Cc1cnc2c(ccn2-c2cc(NC3CC3)c(C(=O)NC3CCC(CCN4CCN(c5ccc(C6CCC(=O)NC6=O)cc5)CC4)CC3)cn2)c1 (stereo not shown) [P-49] |
| 7.5 | 11 | CC(C)Nc1cc(-n2ncc3cc(C#N)cnc32)ncc1C(=O)NC1CCC(CCN2CCN(c3ccc(C4CCC(=O)NC4=O)cc3)CC2)CC1 (stereo not shown) [P-50] |
| 7.9 | 9 | N#Cc1cnc2c(cnn2-c2cc(NC3CC3)c(C(=O)NC3CCC(CCN4CCN(c5ccc(C6CCC(=O)NC6=O)cc5)CC4)CC3)cn2)c1 (stereo not shown) [P-51] |
| 13.4 | 39 | N#Cc1cnc2c(cnn2-c2cc(NC3CCCC3)c(C(=O)NC3CCC(CCN4CCC(Nc5cccc(C6CCC(=O)NC6=O)c5)CC4)CC3)cn2)c1 (stereo not shown) [P-52] |
| 37.6 | 1890 | N#Cc1cnc2c(c1)ncn2-c1cc(NC2CCCC2)c(C(=O)N[C@H]2CC[C@H](CN3CCN(c4ccc5c(c4)C(=O)N(C4CCC(=O)NC4=O)C5=O)CC3)CC2)cn1 (stereo partly shown) [P-53] |
| 14.6 | 31 | N#Cc1cnc2c(cnn2-c2cc(NC3CCCC3)c(-c3cn([C@H]4CC[C@H](CCN5CCN(c6ccc(C7CCC(=O)NC7=O)cc6)CC5)CC4)nn3)cn2)c1 (stereo partly shown) [P-54, 1-(4-(Cyclopentylamino)-5-(1-((1r,4r)-4-(2-(4-(4-(2,6-dioxopiperidin-3-yl)phenyl)piperazin-1-yl)ethyl)cyclohexyl)-1H-1,2,3-triazol-4-yl)pyridin-2-yl)-1H-pyrazolo[3,4-b]pyridine-5-carbonitrile] |
| 10.3 | 15 | N#Cc1cnc2c(cnn2-c2cc(NC3CCCC3)c(-n3cc([C@H]4CC[C@H](CN5CCN(c6ccc7c(c6)C(=O)N(C6CCC(=O)NC6=O)C7)CC5)CC4)nn3)cn2)c1 (stereo partly shown) [P-55, 1-[4-(Cyclopentylamino)-5-[4-[4-[[4-[2-(2,6-dioxo-3-piperidyl)-3-oxo-isoindolin-5-yl]piperazin-1-yl]methyl]cyclohexyl]triazol-1-yl]-2-pyridyl]pyrazolo[3,4-b]pyridine-5-carbonitrile] |
| 7.7 | 426 | N#Cc1cnc2c(cnn2-c2cc(NC3CCCC3)c(C(=O)NC3CCC(CCN4CCC(c5ccc(C6CCC(=O)NC6=O)cc5)CC4)CC3)cn2)c1 (stereo not shown) [P-56] |
| 9.7 | 194 | C[C@@H]1CN(c2ccc(C3CCC(=O)NC3=O)cc2)C[C@H](C)N1CCC1CCC(NC(=O)c2cnc(-n3ncc4cc(C#N)cnc43)cc2NC2CCCC2)CC1 (stereo partly shown) [P-57] |
| 8.5 | 107 | C[C@@H]1CN(c2ccc(C3CCC(=O)NC3=O)cc2)CCN1CCC1CCC(NC(=O)c2cnc(-n3ncc4cc(C#N)cnc43)cc2NC2CCCC2)CC1 (stereo partly shown) [P-59] |
